Reference: patent publication EP1203770A1 (priority 1992, dated 1994)

Target: T1, HIV-1 protease (Human immunodeficiency virus type 1 group M subtype B, UniProt P04585)
T1 construct: The protease (or proteinase), consisting of only 99 amino acids, is among the smallest enzymes known
Assay: In vitro HIV protease inhibitory assay (HIV Protease FITC Assay)
Format: biochemical
Conditions: for Ki: read-out: HIV-1 FITC Ki; for inhibition at 0.123 µM / inhibition at 0.37 µM / inhibition at 1.1 µM / inhibition at 3.3 µM / inhibition at 10 µM / inhibition at 30 µM: read-out: HIV-1 Protease % Inhib
Procedure, shortened: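 Percent inhibition was read as fluorescence after avidin-bead capture and filtration separated FITC cleavage product from biotinylated substrate. Enzyme and substrate reacted 1 h, RT, dark, at pH 5.5 (0.1 M sodium acetate, 1.0 M NaCl, 0.05% NP-40).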

In the case of `COCOCc1ccc(C(C2=C(O)CC(CCc3ccccc3)(CC(C)C)OC2=O)C2CC2)s1` (stereo not drawn) [Example 232, 2H-Pyran-2-one, 3-(α-cyclopropyl-[5-(methoxymethoxy-methyl)-thiophen-2-yl]-methyl)-5,6-dihydro-4-hydroxy-6-(2-methylpropyl)-6-(2-phenylethyl)-], the “HIV-1 Protease % Inhib” value (HIV-1 Dose 0.123 uM) is reported as 10.57%, the “HIV-1 Protease % Inhib” value (HIV-1 Dose 0.370 uM) is reported as 36.97% and the “HIV-1 Protease % Inhib” value (HIV-1 Dose 1.100 uM) is reported as 73.74%. The “HIV-1 Protease % Inhib” value (HIV-1 Dose 3.300 uM) was 93.56%, the “HIV-1 Protease % Inhib” value (HIV-1 Dose 10.000 uM) was 103.56% and the “HIV-1 Protease % Inhib” value (HIV-1 Dose 30.000 uM) was 98.87%. The Ki was 76 nM.
For `C=CC(C1=C(O)CC(CCc2ccccc2)(CC(C)C)OC1=O)c1ccccc1` (centres unmarked) [Example 233, 2H-Pyran-2-one, 5,6-dihydro-4-hydroxy-6-(2-methylpropyl)-6-(2-phenylethyl)-3-(1-phenyl-2-propenyl)-], the inhibition at 0.123 µM (HIV-1 Dose 0.123 uM) was under 10%, the inhibition at 0.37 µM (HIV-1 Dose 0.370 uM) was 28.9% and the inhibition at 1.1 µM (HIV-1 Dose 1.100 uM) was 64.9%. It also gave an inhibition at 3.3 µM (HIV-1 Dose 3.300 uM) of 83.1%, an inhibition at 10 µM (HIV-1 Dose 10.000 uM) of 93.7% and an inhibition at 30 µM (HIV-1 Dose 30.000 uM) of 59.4%. The Ki was 24.8 nM.
For `CCC(C1=C(O)CC(CCc2ccccc2)(CC(C)C)OC1=O)c1ccccc1` (centres unmarked) [Example 234, 2H-Pyran-2-one, 5,6-dihydro-4-hydroxy-6-(2-methylpropyl)-6-(2-phenylethyl)-3-(1-phenylpropyl)-], the inhibition at 0.123 µM (HIV-1 Dose 0.123 uM) was under 10%, the inhibition at 0.37 µM (HIV-1 Dose 0.370 uM) was 33.4% and the inhibition at 1.1 µM (HIV-1 Dose 1.100 uM) was 61.6%. The inhibition at 3.3 µM (HIV-1 Dose 3.300 uM) was 81.1%, the inhibition at 10 µM (HIV-1 Dose 10.000 uM) was 83% and the inhibition at 30 µM (HIV-1 Dose 30.000 uM) was 71.1%. The Ki was 39.4 nM.
`O=C1OC(CCc2ccccc2)(CCc2ccccc2)CC(O)=C1C(c1ccccc1)c1ccccc1` [Example 235, 2H-Pyran-2-one, 5,6-dihydro-3-diphenylmethyl4-hydroxy-6,6-di-(2-phenylethyl)-] gave an inhibition at 0.123 µM (HIV-1 Dose 0.123 uM) of under 10%, an inhibition at 0.37 µM (HIV-1 Dose 0.370 uM) of 13.7% and an inhibition at 1.1 µM (HIV-1 Dose 1.100 uM) of 33.2%. The inhibition at 3.3 µM (HIV-1 Dose 3.300 uM) was 61.6%, the inhibition at 10 µM (HIV-1 Dose 10.000 uM) was 73.3% and the inhibition at 30 µM (HIV-1 Dose 30.000 uM) was 80.1%.
In the case of `O=C1OC(CCc2ccccc2)(CCc2ccccc2)CC(O)=C1C(C=Cc1ccccc1)c1ccccc1` (centres unmarked) [Example 236, 2H-Pyran-2-one, 5,6-dihydro-4-hydroxy-6,6-di-(2-phenylethyl)-3-(1,3-diphenyl-2-propenyl)-], the inhibition at 0.123 µM (HIV-1 Dose 0.123 uM) is reported as under 10%, the inhibition at 0.37 µM (HIV-1 Dose 0.370 uM) is reported as under 10% and the inhibition at 1.1 µM (HIV-1 Dose 1.100 uM) is reported as 26%. The inhibition at 3.3 µM (HIV-1 Dose 3.300 uM) was 54.1%, the inhibition at 10 µM (HIV-1 Dose 10.000 uM) was 75.8% and the inhibition at 30 µM (HIV-1 Dose 30.000 uM) was 78.7%.
For `O=C1OC(CCc2ccccc2)(CCc2ccccc2)CC(O)=C1C(CCc1ccccc1)c1ccccc1` (centres unmarked) [Example 237, 2H-Pyran-2-one, 5,6-dihydro-4-hydroxy-6,6-di-(2-phenylethyl)-3-(1,3-diphenylpropyl)-], the inhibition at 0.123 µM (HIV-1 Dose 0.123 uM) was under 10%, the inhibition at 0.37 µM (HIV-1 Dose 0.370 uM) was 10.2% and the inhibition at 1.1 µM (HIV-1 Dose 1.100 uM) was 32%. The inhibition at 3.3 µM (HIV-1 Dose 3.300 uM) was 60.2%, the inhibition at 10 µM (HIV-1 Dose 10.000 uM) was 80.9% and the inhibition at 30 µM (HIV-1 Dose 30.000 uM) was 78.2%.
`CCCC1(CCCc2ccccc2)CC(O)=C(C(C=Cc2ccccc2)c2ccccc2)C(=O)O1` (centres unmarked) [Example 238, 2H-Pyran-2-one, 5,6-dihydro-4-hydroxy-3-(1,3-diphenyl-2-propenyl)-6-(3-phenylpropyl)-6-propyl-] gave an inhibition at 0.123 µM (HIV-1 Dose 0.123 uM) of under 10%, an inhibition at 0.37 µM (HIV-1 Dose 0.370 uM) of 20.5% and an inhibition at 1.1 µM (HIV-1 Dose 1.100 uM) of 52.8%. For the same compound, the inhibition at 3.3 µM (HIV-1 Dose 3.300 uM) was 75.6%, the inhibition at 10 µM (HIV-1 Dose 10.000 uM) was 81% and the inhibition at 30 µM (HIV-1 Dose 30.000 uM) was 87.1%. For the same compound, the Ki was 163 nM.
Work on `CCCC1(CCCc2ccccc2)CC(O)=C(C(CCc2ccccc2)c2ccccc2)C(=O)O1` (centres unmarked) [Example 239, 2H-Pyran-2-one, 5,6-dihydro-4-hydroxy-3-(1,3-diphenylpropyl)-6-(3-phenylpropyl)-6-propyl-] yielded an inhibition at 0.123 µM (HIV-1 Dose 0.123 uM) of under 10%, an inhibition at 0.37 µM (HIV-1 Dose 0.370 uM) of 35.8% and an inhibition at 1.1 µM (HIV-1 Dose 1.100 uM) of 63.9%. It also gave an inhibition at 3.3 µM (HIV-1 Dose 3.300 uM) of 79.8%, an inhibition at 10 µM (HIV-1 Dose 10.000 uM) of 91% and an inhibition at 30 µM (HIV-1 Dose 30.000 uM) of 85.7%. The Ki was 99 nM.
